Data reported in patent US20180256623A1, “COMPOSITIONS AND METHOD FOR REGULATING ADIPOSE TISSUE LIPOLYSIS, INSULIN-RESISTANCE, AND HYPERGLYCEMIA” (University of Virginia Patent Foundation, priority 2015, published 2018).

Columns and labels:
[1] = test system: mice; assay: Rodent hemorrhage and trauma (surgery) model; type: in vivo
Description: The acute changes in blood glucose that occur in a T1DM model were invesitaged. Streptozotocin (STZ)-treated mice were subjected to a hemorrhage protocol to mimic surgical induction of the neuroendocrine stress response in humans (FIG. 1). Adipose tissue lipolysis was controlled via the addition of the small molecule inhibitor Atglistatin. The extent of glycemic excursions and ketogenesis was followed.
Separate rodent models of diabetes were employed to investigate the unique co-morbidities associated with T1DM. For the T1DM model, C57BL/6J mice were subjected to low dose injection of streptozotocin (50 mg/kg) at 6-8 weeks of age (see the website for the Diabetic Complications Consortium).
The protocol for modeling surgery-induced stress has been adapted from several sources and is available to an art worker. Although few human patients undergo extensive hemorrhage during elective surgeries, this rodent protocol is a consistent and reproducible experimental model for surgical stress in humans. Briefly, on the day of the surgery 10-12 week old male mice were fasted for six hours prior to surgery and pre-treated with or without lmg/kg body weight of Atglistatin at four hours prior to surgery to prevent adipose tissue lipolysis. Mice were then anesthetized by continuous inhalation of isoflurane and subjected to a 2-cm ventral midline laparotomy. The abdomen will then be sutured, a catheter was placed in the right femoral artery and mice were hemorrhaged from the left femoral artery to a mean arterial pressure (MAP) of 35-40 mm Hg (T0′). Blood glucose and ketone levels were monitored during the surgery. The mice were followed until 30′ post-hemorrhage and were maintained continuously under anesthesia. At the termination of the experiment, blood was collected to measure serum catecholamines, insulin, cytokines, ketones and glycerol levels, among other possible metabolic parameters.
Rodent hemorrhage and trauma model—To activate the adaptive stress response and emulate the acute hyperglycemia and insulin resistance that develops after surgery, trauma and hemorrhage mice as previously described will be used. Briefly, 10-12 week old male mice are fasted for 4-6 hours prior to surgery and 4 hours before surgery, Atglistatin (1 mg/kg) or vehicle will be injected intraperitoneally. Mice are anesthetized by continuous inhalation of 1.5% isoflurane and 98.5% 02 throughout all procedures. After the mice are shaved, surgery will begin with a 2-cm ventral midline laparotomy. The abdomen is then sutured and the wounds bathed with 1% lidocaine to reduce pain. A catheter is placed in the right femoral artery for monitoring mean arterial pressure (MAP). To replicate the blood loss during a surgery, mice are hemorrhaged from the left femoral artery to an MAP of 35-40 mmHg over a 10-minute period. Once the MAP reaches 35-40 mmHg, the […]. […] Control mice are subjected to trauma alone. Mice are subjected to anesthesia, laparotomy, and catheterization. […] Blood glucose levels are monitored during the surgery.

[2] = biological target: T1, hormone-sensitive lipase (Homo sapiens, UniProt Q05469); conditions: cited from earlier work
T1 sequence (Q05469 1-1076): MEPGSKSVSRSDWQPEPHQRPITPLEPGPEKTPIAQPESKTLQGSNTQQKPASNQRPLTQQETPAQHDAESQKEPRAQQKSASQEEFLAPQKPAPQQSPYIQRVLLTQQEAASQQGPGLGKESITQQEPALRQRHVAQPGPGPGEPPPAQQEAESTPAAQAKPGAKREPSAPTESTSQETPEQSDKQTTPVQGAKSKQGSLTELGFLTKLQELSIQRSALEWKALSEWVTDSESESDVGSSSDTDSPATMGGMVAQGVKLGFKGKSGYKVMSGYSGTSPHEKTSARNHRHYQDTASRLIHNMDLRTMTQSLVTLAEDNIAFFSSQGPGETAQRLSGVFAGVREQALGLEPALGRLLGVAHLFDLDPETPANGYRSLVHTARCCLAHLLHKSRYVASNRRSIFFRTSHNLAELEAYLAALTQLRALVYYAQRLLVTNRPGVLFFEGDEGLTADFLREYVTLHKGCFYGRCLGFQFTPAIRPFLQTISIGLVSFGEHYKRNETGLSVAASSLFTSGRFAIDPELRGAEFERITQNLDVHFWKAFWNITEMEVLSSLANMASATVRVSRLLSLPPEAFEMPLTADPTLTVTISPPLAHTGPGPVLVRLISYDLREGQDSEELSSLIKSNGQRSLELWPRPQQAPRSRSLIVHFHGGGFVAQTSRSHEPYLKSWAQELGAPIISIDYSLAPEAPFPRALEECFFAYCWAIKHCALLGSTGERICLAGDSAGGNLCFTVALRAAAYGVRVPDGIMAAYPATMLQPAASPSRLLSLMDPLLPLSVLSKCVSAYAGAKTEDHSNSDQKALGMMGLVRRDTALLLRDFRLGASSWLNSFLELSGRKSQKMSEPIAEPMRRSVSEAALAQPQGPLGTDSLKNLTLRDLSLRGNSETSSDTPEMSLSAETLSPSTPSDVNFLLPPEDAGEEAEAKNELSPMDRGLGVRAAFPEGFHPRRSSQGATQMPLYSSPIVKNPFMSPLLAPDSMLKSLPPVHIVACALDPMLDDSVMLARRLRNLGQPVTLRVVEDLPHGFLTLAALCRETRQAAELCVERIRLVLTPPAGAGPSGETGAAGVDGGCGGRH

[3] = biological target: T2, pancreatic lipase (Homo sapiens, UniProt P16233); conditions: cited from earlier work
T2 sequence (P16233 17-465): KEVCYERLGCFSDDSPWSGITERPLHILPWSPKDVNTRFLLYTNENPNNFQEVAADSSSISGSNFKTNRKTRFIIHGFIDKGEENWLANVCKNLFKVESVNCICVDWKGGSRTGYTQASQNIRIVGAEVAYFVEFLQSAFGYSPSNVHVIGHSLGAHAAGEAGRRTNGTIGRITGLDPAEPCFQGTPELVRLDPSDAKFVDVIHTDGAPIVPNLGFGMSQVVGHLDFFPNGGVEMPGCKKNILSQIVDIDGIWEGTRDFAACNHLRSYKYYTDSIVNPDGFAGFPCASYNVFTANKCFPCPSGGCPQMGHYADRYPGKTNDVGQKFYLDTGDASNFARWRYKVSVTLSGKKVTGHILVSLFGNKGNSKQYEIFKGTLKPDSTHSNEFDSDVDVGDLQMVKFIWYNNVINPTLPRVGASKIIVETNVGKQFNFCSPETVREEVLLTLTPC

[4] = test system: white adipose tissue organ cultures; conditions: cited from earlier work

## CN(C)C(=O)Nc1cccc(-c2ccc(N(C)C)cc2)c1 [Atglistatin, N′-[4′-(dimethylamino) [1,1′-biphenyl]-3-yl]-N,N-dimethyl-urea]
[1]; control mice, pre-treated with lmg/kg body weight four hours prior to surgery, FIG. 2B
  adipose tissue lipolysis as assessed by serum glycerol levels: attenuating adipose tissue lipolysis
[1]; mice, Atglistatin 1 mg/kg intraperitoneally 4 hours before surgery
  circulating glycerol (lipolysis): reduction in circulating glycerol
[1]; mice, Atglistatin 1 mg/kg intraperitoneally 4 hours before surgery, FIG. 3A
  hemorrhage-induced hyperglycemia: effective in preventing hemorrhage-induced hyperglycemia
[1]; mice, Atglistatin 1 mg/kg intraperitoneally 4 hours before surgery, FIG. 3B
  insulin resistance in adipose tissue and skeletal muscle: attenuation of insulin resistance in adipose tissue and skeletal muscle
[1]; pharmacological inhibition of ATGL
  stress-induced lipolysis: largely blocks stress-induced lipolysis
[2]
  inhibition of hormone-sensitive lipase: does not inhibit
[3]
  inhibition of pancreatic lipase: does not inhibit
[4]
  lipolysis by ATGL (fatty acid mobilization): blocks lipolysis
